The record followed here is patent US9752125B2, “Differentiation of human embryonic stem cells” (priority 2010, dated 2017).

For the experiment, the system named is human embryonic stem cells line H1. As to the kind of experiment: IN Cell Analyzer imaging of PDX1, NKX6.1 and CDX2 expressing cells at stage 4 day 4 (Example 1). The experiment is classed as cell-based. On the procedure: Treatment 1: DMEM-High glucose+1% B27 for four days (stage 4-basal media-BM), or […].
Parallel populations of Stage 3 cells were also treated with the following protein kinase C activators—phorbol-12-myristate-13-acetate (PMA) at a concentration of 20 nM (Calbiochem #524400), or [(2S, 5S)-(E, E)-8-(5-(4-(Trifluoromethyl)pheny)-2,4-pentadienoylamino)benzolactam] (TPB) at a concentration of 50 nM (Calbiochem #565740), substituted for PDBu in treatment 3 above. At the end of stage 4, day 4, 91% of the cells of the population treated with PMA, and 90% of the cells of the population treated with TPB expressed NKX6.1.

Where [1] appears, read: PKC activator 20 nM in DMEM-High glucose+1% B27+100 ng/ml Noggin+1 μM ALK5 inhibitor II for four days.

On to `CCCC(=O)O[C@@H]1[C@@H](C)[C@@]2(O)[C@@H](C=C(CO)C[C@]3(O)C(=O)C(C)=C[C@@H]23)[C@@H]2C(C)(C)[C@]12OC(=O)CCC` [PDBu, phorbol-12,13-dibutyrate], for which the “percentage of total population expressing NKX6.1” value (shortened to “percentage”) under setting [1] is listed as 88%±4.2.
`CCCCCCCCCCCCCC(=O)O[C@@H]1[C@@H](C)[C@@]2(O)[C@@H](C=C(CO)C[C@]3(O)C(=O)C(C)=C[C@@H]23)[C@@H]2C(C)(C)[C@]12OC(C)=O` [PMA, phorbol-12-myristate-13-acetate]: the “percentage” value under setting [1] came out at 91%.
For the compound “(2S, 5S)-(E, E)-8-(5-(4-(Trifluoromethyl)phenyl)-2,4-pentadiemoylamino) benzolactam [TPB]”, the “percentage” value (TPB 50 nM substituted for PDBu in treatment 3) is listed as 90%.
